Source: patent US12054447B2, “PCNA inhibitors” (City of Hope, priority 2015, dated 2024)

Legend:
[1] = test system: PBMC; test: Cell growth, CellTitor-Glo assay, 72 h; format: cell-based, human; conditions: Homo sapiens; PBMC (non-malignant)
Protocol: The human NB cell lines, SK-N-DZ, SK-N-BE(2)c, SK-N-AS, and LAN-5 obtained from the American Type Culture Collection (Rockville, MD), were cultured in DMEM with 10% fetal bovine serum (FBS), 100 units/ml penicillin, and 100 μg/ml streptomycin in the presence of 5% CO2 at 37° C. Human PBMCs from a healthy donor were purchased from Sanguine BioSciences (Valencia, CA) and grown in RPMI1640 with 10% FBS, 100 units/ml penicillin, 100 μg/ml streptomycin, and 10 ng/ml IL-2 in the presence of 5% CO2 at 37° C. Human embryonic progenitor cell line 7SM0032 was acquired from Millipore (Billerica, MA) and grown in the hEPM-1 Media Kit purchased from the same company. The plasmid pCBASce expresses the rare cutting I-SceI meganuclease. The U20S-derived cell lines, DR-GFP and EJ5-GFP, each contain a stably transfected reporter gene for DSB repair mediated by HR and end joining (EJ), respectively. These cell lines were cultured in DMEM medium with 10% FBS at 37° C. in the presence of 5% CO2.
To measure the effect of the compounds on cell growth, cells were seeded at 3×10^4/ml into a 96-well plate. Once attached, cells were treated with various concentrations of AOH1160 for 72 h. Cell growth was measured by the CellTitor-Glo assay (Promega, Madison, WI) according to the manufacturer's instructions. To measure apoptosis, cells were seeded at 1×10^5/ml onto a chamber slide. Once attached, cells were treated with the 500 nM AOH1160 for 24 h. Cells were fixed and analyzed by a TUNEL assay using the TMR red in situ cell death detection kit (Roche Diagnostics, Indianapolis, IN).

[2] = test system: A498; test: NCI-60 panel test; format: cell-based; conditions: Homo sapiens; A498, NCI-60 5-dose study
Protocol: (§1) FIG. 7. NCI-60 panel test. The effect of AOH1160 on growth of the NCI-60 panel, which consists of 60 cancer cell lines representing 9 major cancer types, was tested in a 5-dose study. Shown are the Log IC50 values determined for each cell line. […] This study was performed by the National Institute of Cancer.
(§2) As observed in FIG. 7, the effect of AOH1160 on growth of the NCI-60 panel, which consists of 60 cancer cell lines representing 9 major cancer types, was tested in a 5-dose study. Shown are the Log IC50 values determined for each cell line.

[3] = test system: EKVX; test: NCI-60 panel test; format: cell-based; conditions: Homo sapiens, NCI-60 5-dose study
Protocol: as §1, §2

[4] = test system: HOP-62; test: NCI-60 panel test; format: cell-based; conditions: Homo sapiens; HOP-62, NCI-60 5-dose study
Protocol: as §1, §2

[5] = test system: HOP-92; test: NCI-60 panel test; format: cell-based; conditions: Homo sapiens; HOP-92, NCI-60 5-dose study
Protocol: as §1, §2

[6] = test system: HT29; test: NCI-60 panel test; format: cell-based; conditions: Homo sapiens, HT-29; HT29, NCI-60 5-dose study
Protocol: as §1, §2

[7] = test system: IGROV1; test: NCI-60 panel test; format: cell-based; conditions: Homo sapiens, IGROV-1; IGROV1, NCI-60 5-dose study
Protocol: as §1, §2

[8] = test system: K-562; test: NCI-60 panel test; format: cell-based; conditions: Homo sapiens, K562; K-562, NCI-60 5-dose study
Protocol: as §1, §2

[9] = test system: KM12; test: NCI-60 panel test; format: cell-based; conditions: Homo sapiens; KM12, NCI-60 5-dose study
Protocol: as §1, §2

[10] = test system: M14; test: NCI-60 panel test; format: cell-based; conditions: Homo sapiens; M14, NCI-60 5-dose study
Protocol: as §1, §2

[11] = test system: MALME-3M; test: NCI-60 panel test; format: cell-based; conditions: Homo sapiens, NCI-60 5-dose study
Protocol: as §1, §2

[12] = test system: MOLT-4; test: NCI-60 panel test; format: cell-based; conditions: Homo sapiens; MOLT-4, NCI-60 5-dose study
Protocol: as §1, §2

[13] = test system: NCI-H23; test: NCI-60 panel test; format: cell-based; conditions: Homo sapiens; NCI-H23, NCI-60 5-dose study
Protocol: as §1, §2

[14] = test system: OVCAR-3; test: NCI-60 panel test; format: cell-based; conditions: Homo sapiens; OVCAR-3, NCI-60 5-dose study
Protocol: as §1, §2

[15] = test system: OVCAR-4; test: NCI-60 panel test; format: cell-based; conditions: Homo sapiens; OVCAR-4, NCI-60 5-dose study
Protocol: as §1, §2

[16] = test system: OVCAR-5; test: NCI-60 panel test; format: cell-based; conditions: Homo sapiens; OVCAR-5, NCI-60 5-dose study
Protocol: as §1, §2

[17] = test system: RXF 393; test: NCI-60 panel test; format: cell-based; conditions: Homo sapiens; RXF 393, NCI-60 5-dose study
Protocol: as §1, §2

[18] = test system: SF-295; test: NCI-60 panel test; format: cell-based; conditions: Homo sapiens; SF-295, NCI-60 5-dose study
Protocol: as §1, §2

[19] = test system: SF-539; test: NCI-60 panel test; format: cell-based; conditions: Homo sapiens; SF-539, NCI-60 5-dose study
Protocol: as §1, §2

[20] = test system: SK-MEL-5; test: NCI-60 panel test; format: cell-based; conditions: Homo sapiens; SK-MEL-5, NCI-60 5-dose study
Protocol: as §1, §2

[21] = test system: SN12C; test: NCI-60 panel test; format: cell-based; conditions: Homo sapiens, NCI-60 5-dose study
Protocol: as §1, §2

[22] = test system: SR; test: NCI-60 panel test; format: cell-based; conditions: Homo sapiens, NCI-60 5-dose study
Protocol: as §1, §2

[23] = test system: SW-620; test: NCI-60 panel test; format: cell-based; conditions: Homo sapiens; SW-620, NCI-60 5-dose study
Protocol: as §1, §2

[24] = test system: T-47D; test: NCI-60 panel test; format: cell-based; conditions: Homo sapiens, T47D, NCI-60 5-dose study
Protocol: as §1, §2

[25] = test system: TK-10; test: NCI-60 panel test; format: cell-based; conditions: Homo sapiens; TK-10, NCI-60 5-dose study
Protocol: as §1, §2

[26] = test system: U251; test: NCI-60 panel test; format: cell-based; conditions: Homo sapiens, U-251; U251, NCI-60 5-dose study
Protocol: as §1, §2

[27] = test system: UACC-62; test: NCI-60 panel test; format: cell-based; conditions: Homo sapiens; UACC-62, NCI-60 5-dose study
Protocol: as §1, §2

[28] = test system: UO-31; test: NCI-60 panel test; format: cell-based; conditions: Homo sapiens; UO-31, NCI-60 5-dose study
Protocol: as §1, §2

Row | Structure (SMILES) | IC50 [1] [µM] | GI50 [2] [µM] | GI50 [3] [µM] | GI50 [4] [µM] | GI50 [5] [µM] | GI50 [6] [µM] | GI50 [7] [µM] | GI50 [8] [µM] | GI50 [9] [µM] | GI50 [10] [µM] | GI50 [12] [µM] | GI50 [13] [µM] | GI50 [14] [µM] | GI50 [15] [µM] | GI50 [16] [µM] | GI50 [17] [µM] | GI50 [18] [µM] | GI50 [19] [µM] | GI50 [20] [µM] | GI50 [21] [µM] | other results
1 | COc1cccc(Oc2ccccc2NC(=O)CNC(=O)c2cccc3ccccc23)c1 [PCNA7/ AOH1996] | > 20 | 0.115 | 1.29 | 0.302 | 0.204 | 0.11 | 1.05 | 0.129 | 0.191 | 0.158 | 0.661 | 0.741 | 0.1 | 0.776 | 1.12 | 0.166 | 0.112 | 0.224 | 0.219 | 1.45 | GI50 [11]: 17 µM; GI50 [22]: 0.115 µM; GI50 [23]: 0.166 µM; GI50 [24]: 0.138 µM; GI50 [25]: 1.58 µM; GI50 [26]: 0.24 µM; GI50 [27]: 0.209 µM; GI50 [28]: 1.82 µM
2 | O=C(CNC(=O)c1cccc2ccccc12)Nc1ccccc1Oc1cccc(O)c1 [PCNA2] | > 20 | 5.13 | 8.91 | 8.13 | 25.1 | 21.4 | 10 | 1.05 | 2.19 | 1.55 | 4.9 | 15.8 | 1.51 | 25.1 | 25.1 | 4.17 | 2.19 | 4.07 | 25.1 | 25.1 | GI50 [11]: 5.89 µM; GI50 [22]: 1.05 µM; GI50 [23]: 3.09 µM; GI50 [24]: 9.77 µM; GI50 [25]: 25.1 µM; GI50 [26]: 8.32 µM; GI50 [27]: 1.62 µM; GI50 [28]: 16.6 µM
3 | O=C(CNC(=O)c1cccc2ccccc12)Nc1ccccc1Oc1ccccc1 [AOH1160] | > 20 | 0.257 | 0.776 | 0.355 | 2.24 | 0.288 | 0.912 | 0.0708 | 0.288 | 0.275 | 0.347 | 0.661 | 0.191 | 4.57 | 0.525 | 0.186 | 0.251 | 0.24 | 0.263 | 0.589 | GI50 [11]: 10 µM; GI50 [22]: 0.0832 µM; GI50 [23]: 0.282 µM; GI50 [24]: 0.537 µM; GI50 [25]: 0.617 µM; GI50 [26]: 0.331 µM; GI50 [27]: 0.178 µM; GI50 [28]: 0.646 µM
4 | O=C(CNC(=O)c1cccc2ccccc12)Nc1ccccc1Oc1ccc(O)cc1 [PCNA1] | > 20 | 1.02 | 1.17 | 1.35 | 25.1 | 1 | 2.34 | 0.501 | 0.912 | 0.692 | 1.2 | 2.14 | 0.741 | 2.82 | 6.31 | 0.501 | 0.617 | 0.692 | 25.1 | 2.19 | GI50 [22]: 0.457 µM; GI50 [23]: 0.912 µM; GI50 [24]: 1.55 µM; GI50 [25]: 17 µM; GI50 [26]: 1.41 µM; GI50 [27]: 1.17 µM; GI50 [28]: 1.78 µM
5 | COc1ccc(Oc2ccccc2NC(=O)CNC(=O)c2cccc3ccccc23)cc1 [PCNA6] | > 20 | 0.562 | 1.38 | 0.724 | 25.1 | 0.575 | 1.58 | 0.145 | 0.575 | 0.55 | 0.955 | 1.29 | 0.389 | 2.24 | 2 | 0.49 | 0.398 | 0.575 | 25.1 | 2.29 | GI50 [11]: 25.1 µM; GI50 [22]: 0.166 µM; GI50 [23]: 0.676 µM; GI50 [24]: 2.51 µM; GI50 [25]: 2.14 µM; GI50 [26]: 1.05 µM; GI50 [27]: 0.562 µM; GI50 [28]: 1.48 µM
